{
  "source": "paper PMC11784013",
  "about": "“Potassium molybdate blocks APN-dependent coronavirus entry by degrading receptor via PIK3C3-mediated autophagy” (Journal of Virology, 2024)",
  "key": {"APN": {"system": "APN", "experiment": "Pathway inhibitor screen on PM-induced APN degradation in ST cells (western blot)", "format": "cell-based, porcine", "conditions": "PM 10 mM, 16 h, 3-MA 20 mM", "description": "Fig 6 PM degrades APN by autophagy-lysosome pathway. (A) ST cells were treated with PM (10 mM) and infected with TGEV (0.1 MOI) in the presence and absence of MG132 (20 µM), 3-MA (20 mM), and Z-VAD-FMK (20 µM) for 16 h. The APN expression and TGEV N were detected by western blot. (B) ST cells were treated with PM (10 mM) at 2, 4, 8, and 16 h, autophagy markers P62 and LC3, and APN were measured by western blot. (C) ST cells were transfected with RFP-EGFP-LC3B for 12 h and then treated with PM (10 mM) or H2O for 36 h. The fluorescence of GFP and RFP was detected by confocal microscopy, scale bar: 5 µm. (D) Quantification of autophagosomes (Merge) and autolysosomes (RFP) from C using Image J software. (E) ST cells were treated with PM or H2O for 24 h. The autophagosomes (yellow arrow) and autolysosomes (asterisk) were detected by transmission electron microscope, scale bar: 2 µm. (F) The number of autophagosomes (yellow arrow) and autolysosomes (asterisk) was quantified. All western blot results were calculated by Image J. Results are presented as mean ± SD of data from three independent experiments. ***, P ≤ 0.001.\nFig 7 PM degrades APN expression via activating PIK3C3-mediated autophagy. (A) Graphical representation for autophagy and the targets of different autophagy inhibitors. (B) ST cells were treated with PM (10 mM) in the presence and absence of 3-MA (20 mM), SBI0206965 (20 µM), and 3BDO (30 µM) for 16 h, and the APN expression was detected by western blot. (C) ST cells were treated with PM (10 mM) in the presence and absence of 3-MA (20 mM) for 16 h, and the APN, PIK3C3, ATG14, BECN1, P62, and LC3 were measured by western blot. (D) ST cells were transfected with PIK3C3 siRNA-1, PIK3C3 siRNA-2, PIK3C3 siRNA-3, PIK3C3 siRNA-4, and NC siRNA for 24 h, the PIK3C3 expression was detected by western blot. (E) ST cells were transfected with PIK3C3 siRNA-4 or NC siRNA for 24 h and then treated with PM (10 mM) for 16 h. The APN, PIK3C3, ATG14, BECN1, P62, and LC3 were detected by western blot. (F) Sequencing diagram for WT ST cells and PIK3C3 KO ST cells. (G) PIK3C3 was detected by western blot in WT ST cells and PIK3C3 KO ST cells. (H) WT ST cells and PIK3C3 KO ST cells were treated with PM (10 mM) for 16 h and then the APN, PIK3C3, ATG14, BECN1, P62, and LC3 were detected by western blot. (I) WT ST cells and PIK3C3 KO ST cells were transfected with pCMV-Myc and pCMV-Myc-PIK3C3, respectively, for 24 h and treated with PM (10 mM) for 16 h. The APN, PIK3C3, P62, and LC3 were detected by western blot. All western blot results were calculated by Image J. All experiments were performed in triplicate."}, "TGEV Miller": {"system": "TGEV Miller", "experiment": "TGEV infection of ST cells (RT-qPCR, TCID50, western blot, IFA)", "format": "cell-based, transmissible gastroenteritis virus", "conditions": "TGEV Miller 0.1 MOI, indicated concentrations, 1 h pretreatment and 17 h", "description": "Fig 1 PM inhibits TGEV and PRCV infection in ST cells. (A) A cytotoxicity assay of PM in ST cells. ST cells cultured in a 96-well plate were incubated with different concentrations of PM for 24 h, which was tested by Cell Counting Kit 8. (B) Time course for PM inhibiting TGEV or PRCV or PEDV infection assay. (C–F) The ST cells, pretreated with PM at the indicated concentrations for 1 h were infected with TGEV Miller (0.1 MOI) or PRCV (0.1 MOI) for 1 h and were again treated with PM at 37°C for 17 h. The cell samples were collected and examined by real-time quantitative PCR (RT-qPCR), TCID50, western blot (C and D), and immunofluorescence assay (IFA) (E and F), scale bar: 50 µm. (G) Vero-E6 cells were treated with indicated PM and infected with PEDV LJX 01/2014 according to the time course of Fig. 1B, which was detected by TCID50 and western blot. Results are presented as mean ± SD of data from three independent experiments. ns, no significant; **, P ≤ 0.01; ***, P ≤ 0.001.\nFig 3 PM inhibits TGEV and PRCV infection by potassium ion and molybdate synergy. […] The cell samples were measured by RT-qPCR. (C and D) ST cells were treated with PM (K2MoO4, 10 mM), KCl (20 mM), Na2MoO4 (10 mM), sodium chloride (NaCl, 10 mM), K2MoO4 (10 mM), and NaCl (20 mM) as well as Na2MoO4 (10 mM) and KCl (20 mM) for 1 h and then infected with TGEV Miller (0.1 MOI) or PRCV (0.1 MOI) for 17 h, which was determined by RT-qPCR and TCID50. […]\nTotal RNA was extracted using RNAiso reagent (TaKaRa, Japan, 9109) and reverse transcribed into cDNA using HiScript Q RT SuperMix for qPCR (Vazyme, China, R223-01), both of which followed the manufacturer’s recommendations. The TGEV and PRCV virus copy numbers were detected by the TaqMan probe-based RT-qPCR method developed previously in our laboratory ([59]). Relative qPCR was also performed using ChamQ SYBR qPCR master mix (Vazyme, China, Q311-02), and the results were calculated via the 2^-ΔΔCT method."}, "[1]": {"conditions": "no virus, SBI0206965 20 µM, 3BDO 30 µM"}},
  "data": [
    {"smiles": "Cn1cnc(N)c2ncnc1-2", "note": "[3-MA, 3-Methyladenine]", "values": [
      {"measurement": "reversal of PM-induced APN degradation", "setting": "APN; [1]", "value": "reversed the changes in APN expression"},
      {"measurement": "reversal of PM-induced APN degradation", "setting": "APN; TGEV 0.1 MOI, MG132 20 µM, Z-VAD-FMK 20 µM", "value": "reversed"}
    ]},
    {"smiles": "O=C1OC(COc2ccccc2[N+](=O)[O-])CC1Cc1ccccc1", "note": "(stereo not drawn) [3BDO]", "values": [
      {"measurement": "reversal of PM-induced APN degradation", "setting": "APN; [1]", "value": "cannot abolish the degradation of APN"}
    ]},
    {"smiles": "CNC(=O)c1ccccc1Oc1nc(Nc2cc(OC)c(OC)c(OC)c2)ncc1Br", "note": "[SBI0206965]", "values": [
      {"measurement": "reversal of PM-induced APN degradation", "setting": "APN; [1]", "value": "cannot abolish the degradation of APN"}
    ]},
    {"smiles": "[Cl-].[K+]", "note": "[potassium chloride]", "values": [
      {"measurement": "TGEV infection, single salt", "setting": "TGEV Miller", "value": "neither potassium chloride nor sodium molybdate was able to suppress TGEV infection"}
    ]},
    {"smiles": "[Na+].[Na+].[O]=[Mo](=[O])([O-])[O-]", "note": "[sodium molybdate]", "values": [
      {"measurement": "TGEV infection, single salt", "setting": "TGEV Miller", "value": "neither potassium chloride nor sodium molybdate was able to suppress TGEV infection"}
    ]}
  ]
}
